From publication PMC4372144 (Nature communications, 2015)

Tested on: Type II collagenase
Assay: Peptide cleavage kinetics, modified fluorescamine assay, Type II collagenase
Type: biochemical
Conditions: 1 U ml^−1 Type II collagenase, pH 7.4, 37°C, duration of the assay 9 hours, fluorescamine read-out

For “GCEE-NGGSGGSN-GGGH-Methacrylate [Non-degradable peptide]”, the “protease-mediated cleavage of peptide” value was “not detectable”.
